Data published in US6376682B1, “Compound with α-glucosidase inhibiting action and method for producing the same” (Takama System, Ltd., priority 2000, dated 2002).

How the values were obtained:
[1] = test system: blood sugar elevation caused by sucrose loading; assay: Inhibiting effect on hyperglycemia in the case of sucrose loading; type: in vivo, male Wistar rats; conditions: rats; for Rate of inhibition of blood sugar elevation 30 minutes: po, 30 minutes after sucrose loading
Method: The test was oraly administered as an aqueous solution to fasting male Wistar rats (body weight: 130 to 170 g.
Next after 30 minutes, the sucrose was orally administered to the rats.
Then, 30 minutes, after the administered of the sugar, 0.4 ml of blood was taken from the neck artery of each animal with the animal under restraint without anesthesia (during blood collection only). following colling with ice water, the blood serum was separated by centrifuging, and the glucose concentration (blood sugar level) was measured by the glucose oxidase method (Glucose CII Test Wako).
The above-described test was performed for the novel compound SP (product of the present invention) and Acabose(clnventional roduct).

[2] = test system: β-glucosidase originating in almonds; assay: Activity inhibiting effect on β-glucosidase; type: biochemical; conditions: substrate p-nitrophenol-β-D-glycopyronoside, pH 5.0
Method: β-glucosidase originating in almonds (manufactured by Sigma Co.) was dissolved in a 0.1 M acetic acid buffer solution (pH=5.0), and this solution was diluted to a concentration at which the substrate was hydrolyzed at the rate of 5 n/mol/ml/minute.
100 μL of the test drug was added to 50 μL of 10 mM p-nitrophenol-β-D-glycopyronoside (manufactured by Sigma Co.) used as a substrate, and this mixture was preheated for 5 minutes at 37° C.
Next, 50 μL of the enzyme solution was added, and a reaction was performed for 15 minutes. The reaction was stopped by adding 200 μL of a 0.2 M sodium carbonate solution.
The amount of p-nitrophenol produced was determined from the absorbance at 400 nm.
The substrate and test drug were both dissolved in a 0.1 M acetic acid buffer solution (pH=5.0) prior to use.

[3] = biological target: T1, isomaltase originating in the small intestines of rats (Rattus norvegicus, UniProt P23739); assay: Inhibiting effect on isomaltase, rat jejunum brush border membrane crude enzyme; type: biochemical; conditions: times stronger than Acarbose
T1 construct: The brush border membrane obtained from the jejunum of male Wistar rats (body weight: 150 to 350 g) was used as a crude enzyme; from tissue; host or cells: jejunal brush border membrane of male Wistar rats
T1 sequence (P23739 whole entry): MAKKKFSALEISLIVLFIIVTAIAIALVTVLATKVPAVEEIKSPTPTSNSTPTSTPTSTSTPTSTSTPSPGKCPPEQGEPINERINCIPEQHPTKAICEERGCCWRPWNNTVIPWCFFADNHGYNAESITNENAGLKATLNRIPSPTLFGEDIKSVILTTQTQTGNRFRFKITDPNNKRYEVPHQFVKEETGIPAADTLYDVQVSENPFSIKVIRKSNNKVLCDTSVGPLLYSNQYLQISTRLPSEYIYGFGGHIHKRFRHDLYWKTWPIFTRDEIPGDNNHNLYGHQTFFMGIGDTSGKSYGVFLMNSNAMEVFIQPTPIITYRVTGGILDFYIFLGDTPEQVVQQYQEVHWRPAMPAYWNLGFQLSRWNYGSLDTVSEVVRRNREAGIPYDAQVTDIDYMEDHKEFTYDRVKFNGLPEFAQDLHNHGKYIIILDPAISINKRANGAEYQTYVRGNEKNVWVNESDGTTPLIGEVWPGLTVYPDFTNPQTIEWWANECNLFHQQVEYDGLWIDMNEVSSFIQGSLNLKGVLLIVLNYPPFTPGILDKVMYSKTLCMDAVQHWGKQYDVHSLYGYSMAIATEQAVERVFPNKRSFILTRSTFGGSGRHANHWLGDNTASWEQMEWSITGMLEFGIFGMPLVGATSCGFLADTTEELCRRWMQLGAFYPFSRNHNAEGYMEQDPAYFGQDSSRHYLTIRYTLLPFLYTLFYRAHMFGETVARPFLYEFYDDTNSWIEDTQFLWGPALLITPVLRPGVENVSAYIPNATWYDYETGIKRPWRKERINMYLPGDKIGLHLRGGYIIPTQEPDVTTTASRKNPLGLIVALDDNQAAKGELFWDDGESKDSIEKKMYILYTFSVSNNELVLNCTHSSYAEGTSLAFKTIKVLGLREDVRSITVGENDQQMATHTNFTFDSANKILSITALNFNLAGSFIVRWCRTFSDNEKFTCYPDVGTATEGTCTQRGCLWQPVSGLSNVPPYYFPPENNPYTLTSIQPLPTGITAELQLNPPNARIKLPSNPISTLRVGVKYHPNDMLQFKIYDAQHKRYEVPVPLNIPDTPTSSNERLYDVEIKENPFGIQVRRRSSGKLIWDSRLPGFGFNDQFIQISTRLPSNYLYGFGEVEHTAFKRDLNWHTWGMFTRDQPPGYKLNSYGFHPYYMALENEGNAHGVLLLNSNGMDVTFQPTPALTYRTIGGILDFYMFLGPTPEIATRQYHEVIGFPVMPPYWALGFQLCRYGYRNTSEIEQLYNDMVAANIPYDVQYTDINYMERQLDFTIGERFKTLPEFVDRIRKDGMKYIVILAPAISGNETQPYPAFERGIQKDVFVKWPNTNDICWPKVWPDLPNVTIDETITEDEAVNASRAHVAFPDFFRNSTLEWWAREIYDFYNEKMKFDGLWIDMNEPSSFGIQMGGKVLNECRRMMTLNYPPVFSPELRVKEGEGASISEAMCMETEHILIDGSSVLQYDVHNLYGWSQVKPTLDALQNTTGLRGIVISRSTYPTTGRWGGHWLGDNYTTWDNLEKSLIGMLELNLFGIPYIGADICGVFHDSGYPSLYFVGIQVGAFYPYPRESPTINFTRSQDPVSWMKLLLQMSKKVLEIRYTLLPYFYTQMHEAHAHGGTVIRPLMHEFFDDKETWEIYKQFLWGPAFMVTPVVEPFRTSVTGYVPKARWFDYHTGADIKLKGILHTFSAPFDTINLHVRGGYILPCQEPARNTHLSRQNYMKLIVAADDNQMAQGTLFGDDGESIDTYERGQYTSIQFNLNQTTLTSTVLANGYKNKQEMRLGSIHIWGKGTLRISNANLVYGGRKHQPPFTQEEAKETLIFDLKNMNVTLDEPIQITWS
Method: The brush border membrane obtained from the jejunum of male Wistar rats (body weight: 150 to 350 g) was used as a crude enzyme.
The brush border membrane was suspended in a 0.01 M maleic acid buffer solution (pH=6.0), and this suspension was diluted to a concentration at which the substrate was hydrolyzed at the rate of approximately 25 to 50 n/mol/ml/minute.
For maltase, sucrase and isomaltase, 100 μL of various concentrations of the test drug was added to 50 μL of respective 74 mM maltose, sucrose and isomaltose (used as substrates), and the resulting preparations were pre-heated for 2 to 3 minutes at 37° C.
Next, 50 μL of the enzyme solution was added, and a reaction was performed for 30 minutes. The reaction was stopped by adding 800 μL of water, and placing the reaction mixture in a water bath at 92 to 97° C. for 2 minutes.
The amount of glucose produced was measured by the glucose oxidase method (Glucose CII Test Wako).
In the above, the substrates and test drug were both dissolved in a maleic acid buffer solution (pH=6.0) prior to use.

Compound | Rate of inhibition of blood sugar elevation 30 minutes ([1]; 5 mg/kg) | Rate of inhibition of blood sugar elevation 30 minutes ([1]; 10 mg/kg) | Rate of inhibition of blood sugar elevation 30 minutes ([1]; 25 mg/kg) | Effect in inhibiting the elevation of blood sugar levels compared with Acarbose ([1]; sucrose loading) | Activity inhibiting effect on β-glucosidase [2] | Inhibitory effect against isomaltose relative to Acarbose [3]
C[C@H]1O[C@H](O[C@H]2[C@H](O)[C@@H](O)[C@@H](O[C@H]3[C@H](O)[C@@H](O)C(O)O[C@@H]3CO)O[C@@H]2CO)[C@H](O)[C@@H](O)[C@@H]1N[C@H]1C=C(CO)[C@@H](O)[C@H](O)[C@H]1O (stereo partly drawn) [Acarbose, reference compound] | 33.4 ± 6.2 | 48.5 ± 6.9 | 73.8 ± 5.2 | – | – | –
O=S(=O)([O-])OC(CO)C(O)C[S+]1CC(O)C(O)C1CO (stereo not drawn) [SP] | 40.5 ± 2.3 | 62.1 ± 3.8 | 89.1 ± 3.5 | stronger effect in inhibiting the elevation of blood sugar levels than Acarbose | no activity inhibiting effect | more than 200 times
